Patent US11371985B2, “Selection of agents modulating gastrointestinal pain” (BIOGAIA AB, priority 2014, dated 2022)
“And” between values parts separate entries of the source, which are not always exact repeats. Equal entries are not always repeated.

Columns and labels:
[1] = system: fibers presumed to be nociceptors; parameters: species or system Swiss Webster mice
TRPV1 receptor [2] = target: T1, TRPV1 receptor (Mus musculus, UniProt Q704Y3); assay: Capsaicin-induced Ca2+ rise in DRG neuronal primary cultures (Fluo-4 Ca2+ imaging); type: cell-based; parameters: we used Ca^2+ imaging of DRG neuronal primary culture for these experiments; endogenous in cells; host or cells: primary dorsal root ganglion neurons (thoracolumbar levels)
Protocol: The spinal column was removed from the body, transferred to a beaker containing ice-cold Krebs, and bisected longitudinally. DRG were exposed and collected from the thoracolumbar levels. Whole DRG were washed twice with sterile Leibovitz's L-15 medium (GIBCO, Gaithersburg, Md.), and incubated for 40 min in collagenase type 1 at 1 mg/ml (Sigma-Aldrich; Oakville, ON, Canada) and 0.5 ml trypsin (0.25%, GIBCO) in 20 ml L-15 at 37° C. After further addition of 5 ml L-15 containing 10% fetal bovine serum (FBS, GIBCO), the ganglia were centrifuged for 5 min at 1,000 rpm, then washed twice with growth medium (L-15, containing 10% FBS, 1% Penicillin/Streptomycin/Glutamine, 1% HEPES and 1% Na Pyruvate). […]
DRG neurons were placed within a plexiglass recording dish and loaded with the Ca^2+ indicator Fluo-4-AM (8 μM) diluted in Krebs with 0.1% pluronic acid (in DMSO) at 37° C. for 60 min. […] Fluorescence intensity in individual neurons was recorded by Simple PCI 6 software (Compix Inc, Imaging systems, Sewickley, Pa.). […] Images, recorded at 0.9 frame/s, were stored on a local hard drive. Image files were analyzed off-line using Image J software (NIH, USA, http://imagej.nih.gov/ij). The increase in Fluo-4 Ca^2+ when applying capsaicin was measured as the ratio (F/F0) fluorescence intensity after capsaicin (F) divided by the intensity before capsaicin (F0). […]

TRPV1 receptor [3] = target: T1, TRPV1 receptor; parameters: Segments of distal jejunum (˜2.5 cm) with attached mesenteric tissue were removed from freshly killed animals; from tissue; host or cells: mouse distal jejunum with attached mesenteric nerve bundle (ex vivo); species or system Swiss Webster mice

T1 sequence (Q704Y3 whole entry): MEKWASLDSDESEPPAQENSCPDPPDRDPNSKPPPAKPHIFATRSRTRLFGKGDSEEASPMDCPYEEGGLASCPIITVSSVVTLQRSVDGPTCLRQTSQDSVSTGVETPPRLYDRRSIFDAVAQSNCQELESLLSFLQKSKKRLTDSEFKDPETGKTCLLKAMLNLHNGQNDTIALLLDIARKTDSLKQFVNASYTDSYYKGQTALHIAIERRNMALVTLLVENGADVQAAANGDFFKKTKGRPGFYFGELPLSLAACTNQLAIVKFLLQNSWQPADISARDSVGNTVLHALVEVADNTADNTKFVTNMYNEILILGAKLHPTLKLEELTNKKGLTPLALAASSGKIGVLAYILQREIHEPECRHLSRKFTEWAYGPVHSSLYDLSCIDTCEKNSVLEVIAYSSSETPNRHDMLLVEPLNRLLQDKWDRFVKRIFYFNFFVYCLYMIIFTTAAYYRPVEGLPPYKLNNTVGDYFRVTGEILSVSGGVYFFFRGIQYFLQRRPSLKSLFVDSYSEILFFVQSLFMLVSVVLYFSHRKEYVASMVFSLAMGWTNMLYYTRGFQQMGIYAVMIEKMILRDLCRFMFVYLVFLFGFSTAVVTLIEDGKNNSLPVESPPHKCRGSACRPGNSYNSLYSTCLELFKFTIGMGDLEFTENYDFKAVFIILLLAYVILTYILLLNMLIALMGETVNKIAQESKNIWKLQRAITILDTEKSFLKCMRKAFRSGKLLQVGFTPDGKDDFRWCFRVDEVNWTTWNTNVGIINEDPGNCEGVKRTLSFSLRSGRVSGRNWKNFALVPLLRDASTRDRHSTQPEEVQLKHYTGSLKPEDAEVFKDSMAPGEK

| Compound | single-unit response to distension [1] [Hz] | fluorescence rise ratio F/F0 evoked by capsaicin (TRPV1 receptor [2]; 1 μM capsaicin alone (control group, N=14)) | time to increase in intracellular Ca2+ after puffing capsaicin (TRPV1 receptor [2]; 1 μM capsaicin onto DRG neurons) [s] | capsaicin-evoked excitation with intramural synaptic blockage (TRPV1 receptor [3]; 1 μM capsaicin in presence of 500 nM each ω-Cg-GVIA and ω-Cg-MVIIC, n=12, P=0.947) [%] | capsaicin-evoked excitation (firing frequency increase) (TRPV1 receptor [3]; 1 μM capsaicin serosal, alone (control group), n=17) | maximal response (Top) obtained with capsaicin (TRPV1 receptor [3]; capsaicin alone, increase in firing frequency above baseline) [%] | onset latency of capsaicin-induced firing rate increase (TRPV1 receptor [3]; capsaicin applied to serosal compartment) [s] | Emax (TRPV1 receptor [3]; read-out: maximal response (Top) obtained with capsaicin, capsaicin alone, increase in firing frequency above baseline) [%] | EC50 (TRPV1 receptor [3]; serosal capsaicin 100 nM-100 μM, vagotomized mice, three-parameter logistic fit, read-out: EC50 for capsaicin alone (increase in firing frequency)) [µM] |
| --- | --- | --- | --- | --- | --- | --- | --- | --- | --- |
| COc1cc(CNC(=O)CCCCCC(C)C)c(I)cc1O [6-Iodonordihydrocapsaicin] | 2.23±0.50 |  |  |  |  |  |  |  |  |
| COc1cc(CNC(=O)CCCC/C=C/C(C)C)ccc1O [capsaicin] |  | 2.36±0.31 | ~30 | 219.1±72.6 | 187.5±42.9% and 187.5±43% | 238±27 | ~60 | 238 ± 27.5 | 0.2 |
